Measurements as given in PubChem BioAssay (NCI).
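A five-concentration, 48-hour dose response in 96-well plates underlies each endpoint, interpolated linearly between surrounding concentrations. GI50: concentration for 50% inhibition of growth. TGI: concentration producing complete growth inhibition.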

How the values were obtained:
Assay in all cases: NCI anticancer screen, dose series, 48 h
K-562 leukemia = tested on: K-562 leukemia
RPMI-8226 leukemia = tested on: RPMI-8226 leukemia
KM12 colon = tested on: KM12 colon
OVCAR-5 ovarian = tested on: OVCAR-5 ovarian
MDA-MB-435 = tested on: MDA-MB-435
UO-31 renal = tested on: UO-31 renal
NCI-H23 lung = tested on: NCI-H23 lung
COLO 205 colon = tested on: COLO 205 colon
NCI-H460 lung = tested on: NCI-H460 lung
SK-OV-3 ovarian = tested on: SK-OV-3 ovarian

| SMILES | GI50 (K-562 leukemia) [µM] | TGI (K-562 leukemia) [µM] | GI50 (RPMI-8226 leukemia) [µM] | TGI (RPMI-8226 leukemia) [µM] | GI50 (KM12 colon) [µM] | TGI (KM12 colon) [µM] | GI50 (OVCAR-5 ovarian) [µM] | TGI (OVCAR-5 ovarian) [µM] | GI50 (MDA-MB-435) [µM] | TGI (MDA-MB-435) [µM] | GI50 (UO-31 renal) [µM] | TGI (UO-31 renal) [µM] | GI50 (NCI-H23 lung) [µM] | TGI (NCI-H23 lung) [µM] | GI50 (COLO 205 colon) [µM] | TGI (COLO 205 colon) [µM] | GI50 (NCI-H460 lung) [µM] | TGI (NCI-H460 lung) [µM] | GI50 (SK-OV-3 ovarian) [µM] | TGI (SK-OV-3 ovarian) [µM] |
| --- | --- | --- | --- | --- | --- | --- | --- | --- | --- | --- | --- | --- | --- | --- | --- | --- | --- | --- | --- | --- |
| O=C(Nc1ccc(Cc2ccccc2)cc1)Nc1nn(C(=O)Nc2ccc(Cc3ccccc3)cc2)c2ccccc12 | 40.5 | > 100 | > 100 | > 100 | > 100 | > 100 | > 100 | > 100 | > 100 | > 100 | > 100 | > 100 | > 100 | > 100 | > 100 | > 100 | > 100 | > 100 | > 100 | > 100 |
| CCCCC(CCCCCC(CCCC)NCc1ccc2c(c1)OCO2)NCc1ccc2c(c1)OCO2 (stereo not given) | 0.186 | 0.46 | 0.276 | 0.805 | 0.232 | 0.51 | 1.66 | 3.08 | 0.199 | 0.398 | 0.481 | 1.16 | 1.32 | 2.71 | 0.189 | 0.35 | 0.236 | 0.519 | 1.77 | 3.16 |
| COC(=O)c1ccc2c(c1)C(=O)c1c-2n(CCCCl)c(=O)c2cc([N+](=O)[O-])ccc12 | 59 | > 100 | 84.5 | > 100 | > 100 | > 100 | > 100 | > 100 | > 100 | > 100 | 49.1 | > 100 | 94.6 | > 100 | > 100 | > 100 | 23.1 | > 100 | > 100 | > 100 |
| CCCc1n(Cc2ccc3ccccc3c2)cc[n+]1Cc1ccc2ccccc2c1 | 0.414 | 1.75 | 0.399 | 1.67 | 1.01 | 2.38 | 1.43 | 3.32 | 0.564 | 2.06 | 2.56 | 11.6 | 0.521 | 2.51 | 0.458 | 1.72 | 1.22 | 3.01 | 1.74 | 4.95 |
| CC(=O)O[C@H]([C@H](OC(C)=O)[C@H](C)OC(C)=O)[C@@H](/C=C/[C@@H]1CC=CC(=O)O1)OC(C)=O | > 100 | > 100 | 29.7 | 99.5 | > 100 | > 100 | > 100 | > 100 | 19.8 | > 100 | 20.1 | 39.9 | 35.6 | > 100 | 33.5 | > 100 | 42 | > 100 | > 100 | > 100 |
| C=C1C(=O)O[C@H]2[C@H]1CC/C(COC(=O)NCc1c[nH]c3ccccc13)=C\CC[C@@]1(C)O[C@@H]21 | 1.82 | 12.6 | 1.79 | 6.14 | 13.8 | 30.7 | 3.63 | 14.4 | 2.57 | 11.8 | 1.34 | 2.68 | 8.37 | 24.5 | 1.81 | 3.58 | 8.14 | 23.1 | 13.7 | 26.6 |
| C[C@H]1/C(=C/C(=O)OCCN(C)C)CC[C@H]2[C@H]1C(=O)C[C@H]1C(C)(C)[C@@H](O)CC[C@]21C | > 100 | > 100 | – | > 100 | – | > 100 | – | > 100 | – | > 100 | – | > 100 | – | > 100 | – | > 100 | – | > 100 | – | > 100 |
| CO[C@H]1C=CO[C@@]2(C)Oc3c(C)c(O)c4c(O)c(c(CN5CCN(C)CC5)c(O)c4c3C2=O)NC(=O)/C(C)=C\C=C[C@H](C)[C@H](O)C(C)[C@@H](O)C(C)[C@H](OC(C)=O)[C@@H]1C (stereo not given in full) | – | > 100 | – | > 87.4 | – | > 100 | – | > 100 | – | > 60.8 | – | > 94.4 | – | > 77.6 | – | 25.2 | – | > 100 | – | > 100 |
| Cc1c(O)c(N=Nc2nc3ccccc3s2)c2ccccc2c1O | 14.7 | 48.3 | 23.6 | > 50 | 23.2 | > 50 | > 50 | > 50 | 19.8 | > 50 | 18.8 | > 50 | 13.9 | > 50 | 21.4 | > 50 | 28 | > 50 | 30.1 | > 50 |
| COc1cc2c(c(OC)c1OC)-c1ccc(O)cc1[C@@H](NC(C)=O)CC2 | 0.0376 | > 100 | 0.0312 | – | 0.0358 | 0.224 | 0.215 | > 100 | 0.0206 | 0.0463 | 0.279 | > 51.2 | 0.0544 | > 100 | 0.0319 | 0.0859 | 0.0363 | > 34.9 | 0.0377 | > 100 |
| NC(N)=NCC1CCCCCCN1 (stereo not given) | – | > 100 | – | > 100 | – | > 100 | – | > 100 | – | > 100 | – | > 100 | – | > 100 | – | > 100 | – | > 100 | – | > 100 |
| O=C(/C=C/c1ccc(Cl)cc1)c1ccccc(=O)c1O | – | 12.1 | – | 4.79 | – | 6.45 | – | 19.8 | – | 20.8 | – | > 100 | – | 18.1 | – | 6.53 | – | 3.04 | – | 16.6 |
| Oc1ccc(O)c(-c2cn3c(n2)SCC3)c1 | 7.24 | > 100 | 4.08 | > 100 | 16.9 | 38.2 | 17.5 | 33.3 | 15.8 | 35.2 | 20.7 | > 100 | 24.4 | 73.4 | 17 | 37.8 | 60.9 | > 100 | 12.5 | 40.6 |
